In BindingDB's records for doi:10.1021/cc0600021 (Darmstadt Technical University, 2006):

biological target: Beta-secretase 1 (Homo sapiens, UniProt P56817); experiment: Fluorescence Resonance Energy Transfer (FRET) Assay; details: 20 °C
Protocol: The FRET assay was performed at 20 C on a FLUOstar (BMG Lab Technologies, D-77656 Offenburg) using 96-well microtiter plates (Dynex Microfluor 2, Chantilly, VA).

Chain of Beta-secretase 1 (P56817 whole entry): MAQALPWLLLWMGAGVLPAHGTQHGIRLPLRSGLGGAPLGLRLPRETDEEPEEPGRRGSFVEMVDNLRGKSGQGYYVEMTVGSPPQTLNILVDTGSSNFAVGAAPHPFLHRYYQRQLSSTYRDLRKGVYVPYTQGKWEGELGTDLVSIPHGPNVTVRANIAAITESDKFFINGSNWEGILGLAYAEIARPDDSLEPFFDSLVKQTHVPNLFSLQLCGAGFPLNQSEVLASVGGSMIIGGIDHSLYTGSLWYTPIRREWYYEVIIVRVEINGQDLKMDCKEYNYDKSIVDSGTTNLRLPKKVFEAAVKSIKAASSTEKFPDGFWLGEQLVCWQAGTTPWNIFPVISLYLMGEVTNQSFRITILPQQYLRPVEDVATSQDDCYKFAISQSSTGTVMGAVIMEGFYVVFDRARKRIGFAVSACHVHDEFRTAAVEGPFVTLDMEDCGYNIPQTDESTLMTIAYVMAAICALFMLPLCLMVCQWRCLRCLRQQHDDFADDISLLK

SMILES	IC50 [µM]
O=C1CN(Cc2ccccc2)C(=O)C1SCc1cccc(C(F)(F)F)c1 (configuration not stated) [N-Substituted tetramic acid, 92]	212
CC(C)CC1NC(=O)C(SCc2cccc(C(F)(F)F)c2)C1=O (configuration not stated) [Tetramic acid, 25]	194
CCC(C)C1NC(=O)C(SCc2ccco2)C1=O (configuration not stated) [Tetramic acid, 43]	200
O=C1NC(Cc2ccccc2)C(=O)C1SCc1ccco1 (configuration not stated) [Tetramic acid, 56]	145
O=C1OC(c2ccccc2)C(=O)C1Sc1ccccc1 (configuration not stated) [Tetramic acid, 72]	105
O=C1OC(c2ccccc2)C(=O)C1SCCc1ccccc1 (configuration not stated) [Tetramic acid, 74]	> 200

The remaining lines, values ahead:

IC50 [µM]	SMILES
> 200	O=C1CN(Cc2cccc(C(F)(F)F)c2)C(=O)C1Sc1ccccc1 (configuration not stated) [N-Substituted tetramic acid, 89]
> 200	COc1ccc(CN2CC(=O)C(Sc3ccccc3)C2=O)cc1 (configuration not stated) [N-Substituted tetramic acid, 91]
200	CC(C)CC1NC(=O)C(SCC(=O)NCc2ccc3c(c2)OCO3)C1=O (configuration not stated) [Tetramic acid, 30]
60	CCC(C)C1NC(=O)C(SCc2cccc(C(F)(F)F)c2)C1=O (configuration not stated) [Tetramic acid, 38]
> 200	CCC(C)C1NC(=O)C(SCC(=O)NCc2ccc3c(c2)OCO3)C1=O (configuration not stated) [Tetramic acid, 44]
> 200	O=C1OC(CCc2ccccc2)C(=O)C1SCc1cccc(C(F)(F)F)c1 (configuration not stated) [Tetramic acid, 77]
